# Measurements from US20250099448A1, “HETEROCYCLIC COMPOUNDS” (Hoffmann-La Roche Inc., priority 2022, published 2025).
# Target: T1, MAGL protein (Homo sapiens, UniProt Q99685)
# T1 sequence (Q99685 1-303): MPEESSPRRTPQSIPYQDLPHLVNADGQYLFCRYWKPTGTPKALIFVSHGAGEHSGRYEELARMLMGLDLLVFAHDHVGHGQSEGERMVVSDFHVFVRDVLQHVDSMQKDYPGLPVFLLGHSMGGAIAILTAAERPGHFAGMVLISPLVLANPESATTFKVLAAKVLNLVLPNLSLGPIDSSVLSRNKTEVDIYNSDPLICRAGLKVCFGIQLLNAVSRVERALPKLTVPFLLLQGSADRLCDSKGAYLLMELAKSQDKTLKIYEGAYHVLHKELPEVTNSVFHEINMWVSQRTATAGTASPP
# Experiment: 2-AG assay: MAGL inhibitory activity by hydrolysis of 2-arachidonoylglycerol to arachidonic acid, followed by mass spectrometry
# Format: biochemical
# Conditions: 8 μM 2-arachidonoylglycerol, 15 min preincubation, 30 min reaction at RT, RapidFire MS readout
# Procedure, shortened: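 Activity was measured by RapidFire SPE–triple-quad MS as the ratio of arachidonic acid to d8-arachidonic acid after 2-AG hydrolysis (8 μM substrate, 30 min, RT, acetonitrile quench). Compounds, tested from 12.5 μM down to […], were first preincubated 15 min with MAGL in TRIS/EDTA/Tween-20 buffer containing 2.5% DMSO.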
row,SMILES,IC50 [nM]
1,O=C(N1CC2(CCC(Cc3ccc(Cl)cn3)CC2)C1)N1CC2(CC(c3nc(C4CC(F)(F)C4)n[nH]3)C2)C1 [compound 756],98.5
2,N#Cc1cc(CC2CC3(C2)CN(C(=O)N2CC4(CC(c5nc(C6COC6)n[nH]5)C4)C2)C3)cc(C(F)(F)F)c1 [compound 759],11
3,O=C(N1CC(C23CC(c4cncc(F)c4)(C2)C3)C1)N1CC2(CC(c3nc(C4CC4)n[nH]3)C2)C1 [compound 760],6.09
4,O=C(N1CC2(CC(Cc3cnn(CC(F)(F)F)c3)C2)C1)N1CC2(CC(c3nc(C4(O)CC4)n[nH]3)C2)C1 [compound 765],4.49
5,CCNC(=O)c1cc(Cl)ccc1C12CC(C3CN(C(=O)N4CC5(CC(c6nnc(C7CC7)[nH]6)C5)C4)C3)(C1)C2 [compound 767],4.07
6,O=C(N1CC2(CC(Cc3ccc(C(F)(F)F)cc3F)C2)C1)N1CC2(CC(c3nc(C4COC4)n[nH]3)C2)C1 [compound 768],0.08
7,N#Cc1ccc(CC2CC3(C2)CN(C(=O)N2CC4(CC(c5nc(C6CC6)n[nH]5)C4)C2)C3)c(F)c1 [compound 772],0.05
8,O=C(N1CC(C23CC(c4ccc(F)cc4)(C2)C3)C1)N1CC2(CC(c3nc(C4CC4)n[nH]3)C2)C1 [compound 773],1.31
9,Cn1ncc(CC2CC3(C2)CN(C(=O)N2CC4(CC(c5nc(C6COC6)n[nH]5)C4)C2)C3)c1C(F)(F)F [compound 774],7.94
10,Cn1nc(C(F)(F)F)cc1CC1CC2(C1)CN(C(=O)N1CC3(CC(c4nc(C5(O)CC5)n[nH]4)C3)C1)C2 [compound 775],2.01
11,CS(=O)(=O)C1(c2ccc(C3CN(C(=O)N4CC5(CC(c6nc(C7CC7)n[nH]6)C5)C4)C3)cc2)CC1 [compound 776],5.9
12,Cn1ncc(C(F)(F)F)c1CC1CC2(C1)CN(C(=O)N1CC3(CC(c4nc(C5(O)CC5)n[nH]4)C3)C1)C2 [compound 777],1.27
13,N#Cc1cc(CC2CC3(C2)CN(C(=O)N2CC4(CC(c5nnc(C6CC6)[nH]5)C4)C2)C3)cc(C(F)(F)F)n1 [compound 778],0.99
14,CS(=O)(=O)c1ccc(C23CC(C4CN(C(=O)N5CC6(CC(c7nc(C8CC8)n[nH]7)C6)C5)C4)(C2)C3)cc1 [compound 786],8.01
15,O=C(N1CC2(CC(Cc3cnc(C(F)(F)F)cn3)C2)C1)N1CC2(CC(c3nc(C(F)(F)F)n[nH]3)C2)C1 [compound 788],22.5
16,O=C(N1CC2(CC(Cc3ncc(F)cc3Cl)C2)C1)N1CC2(CC(c3ncn[nH]3)C2)C1 [compound 789],404
17,CS(=O)(=O)C1(c2ccc(C3CN(C(=O)N4CC5(CC(c6nc(C7(O)CC7)n[nH]6)C5)C4)C3)cc2)CC1 [compound 790],9.68

row,SMILES,IC50 [nM]
1,CS(=O)(=O)c1ccc(CC2CC3(C2)CN(C(=O)N2CC4(CC(c5nc(C(F)(F)F)n[nH]5)C4)C2)C3)cc1 [compound 791],17.6
2,O=C(N1CC2(CC(Cc3nnc(C4(C(F)(F)F)CC4)o3)C2)C1)N1CC2(CC(c3nc(C4(F)CC4)n[nH]3)C2)C1 [compound 792],1.98
3,O=C(N1CC2(CC(Cc3cc(C(F)(F)F)n(CC(F)(F)F)n3)C2)C1)N1CC2(CC(c3nc(C4CC4)n[nH]3)C2)C1 [compound 793],0.07
4,O=C(N1CC2(CC(Cn3nccc3C(F)(F)F)C2)C1)N1CC2(CC(c3nc(C4(O)CC4)n[nH]3)C2)C1 [compound 796],1.17
5,N#Cc1ccc(CC2CC3(C2)CN(C(=O)N2CC4(CC(c5nc(C6COC6)n[nH]5)C4)C2)C3)c(F)c1 [compound 797],9.31
6,O=C(N1CC(C23CC(C(F)(F)c4ccc(C(F)(F)F)cc4)(C2)C3)C1)N1CC2(CC(c3nc(C4CC4)n[nH]3)C2)C1 [compound 798],2.4
7,CC(C)(C)Cc1nnc(C23CC(C4CN(C(=O)N5CC6(CC(c7nc(C8COC8)n[nH]7)C6)C5)C4)(C2)C3)s1 [compound 800],554
8,N#Cc1cnn(CC2CC3(C2)CN(C(=O)N2CC4(CC(c5nc(C6CC6)n[nH]5)C4)C2)C3)c1 [compound 801],8.16
9,CS(=O)(=O)c1cc(C(F)(F)F)ccc1C1CC2(C1)CN(C(=O)N1CC3(CC(c4nnc(C5CC5)[nH]4)C3)C1)C2 [compound 803],1.39
10,O=C(N1CC(C23CC(S(=O)(=O)c4ccc(C(F)(F)F)cn4)(C2)C3)C1)N1CC2(CC(c3nc(C4CC4)n[nH]3)C2)C1 [compound 807],478
11,Cn1cc(CC2CC3(C2)CN(C(=O)N2CC4(CC(c5nc(C6(O)CC6)n[nH]5)C4)C2)C3)c(C(F)(F)F)n1 [compound 810],1.14
12,Cn1ncc(CC2CC3(C2)CN(C(=O)N2CC4(CC(c5nc(C6(O)CC6)n[nH]5)C4)C2)C3)c1C(F)(F)F [compound 815],0.6
13,O=C(N1CC2(CC(Cc3n[nH]c(C4(C(F)(F)F)CC4)n3)C2)C1)N1CC2(CC(c3nnc(C4CC4)[nH]3)C2)C1 [compound 816],1.61
14,CS(=O)(=O)c1ccc(CC2CC3(C2)CN(C(=O)N2CC4(CC(c5nc(C6COC6)n[nH]5)C4)C2)C3)cc1 [compound 817],180
15,Cc1cc(C(F)F)nn1CC1CC2(C1)CN(C(=O)N1CC3(CC(c4nc(C5CC5)n[nH]4)C3)C1)C2 [compound 818],0.59
16,O=C(N1CC2(CC(Cc3ncc(F)cc3F)C2)C1)N1CC2(CC(c3nc(C(F)(F)F)n[nH]3)C2)C1 [compound 819],6.59

# Next, values leading:
row,IC50 [nM],SMILES
1,0.61,O=C(N1CC2(CC(Cc3ccc(S(=O)(=O)C(F)(F)F)cc3)C2)C1)N1CC2(CC(c3nc(C4COC4)n[nH]3)C2)C1 [compound 755]
2,3.77,O=C(N1CC2(CC(Cn3cc(OC(F)(F)F)ccc3=O)C2)C1)N1CC2(CC(c3nc(C4CC4)n[nH]3)C2)C1 [compound 757]
3,145,O=C(N1CC2(CC(c3nc(C4CC(F)(F)C4)n[nH]3)C2)C1)N1CC2(CN(Cc3cc(C(F)(F)F)no3)C2)C1 [compound 758]
4,147,O=C(N1CC2(CC(Cc3cnc(C(F)(F)F)cn3)C2)C1)N1CC2(CC(c3nc(C4COC4)n[nH]3)C2)C1 [compound 761]
5,35.7,CCc1nsc(CN2CC3(C2)CN(C(=O)N2CC4(CC(c5nc(C6CC6)n[nH]5)C4)C2)C3)n1 [compound 762]
6,27.1,O=C(N1CC2(CC(c3nc(C4CC4)n[nH]3)C2)C1)N1CC2(CN(Cc3coc(C(F)(F)F)n3)C2)C1 [compound 763]
7,1.08,O=C(N1CC2(CC(Cc3cnn(CC(F)(F)F)c3)C2)C1)N1CC2(CC(c3nc(C4CC4)n[nH]3)C2)C1 [compound 764]
8,2.83,O=C(N1CC2(CC(Cn3ccc(C(F)(F)F)cc3=O)C2)C1)N1CC2(CC(c3nc(C4CC4)n[nH]3)C2)C1 [compound 766]
9,11.8,O=C(N1CC2(CC(Cc3ccc(OC(F)(F)F)nc3)C2)C1)N1CC2(CC(c3nc(C4COC4)n[nH]3)C2)C1 [compound 769]
10,0.23,Cn1cc(CC2CC3(C2)CN(C(=O)N2CC4(CC(c5nc(C6CC6)n[nH]5)C4)C2)C3)c(C(F)(F)F)n1 [compound 770]
11,7.02,N#Cc1ccc(CC2CC3(C2)CN(C(=O)N2CC4(CC(c5nc(C6COC6)n[nH]5)C4)C2)C3)cc1C(F)(F)F [compound 771]
12,8.36,O=C(N1CC2(CCC(Cc3nnc(C(F)(F)F)o3)CC2)C1)N1CC2(CC(c3nc(C4CC4)n[nH]3)C2)C1 [compound 779]
13,3.37,O=C(N1CC2(CC(c3nc(C4CC4)n[nH]3)C2)C1)N1CC2(CN(Cc3nc(C(F)(F)F)cs3)C2)C1 [compound 780]
14,17.8,N=S(=O)(c1ccc(CC2CC3(C2)CN(C(=O)N2CC4(CC(c5nc(C6COC6)n[nH]5)C4)C2)C3)cc1)C(F)(F)F (stereo not drawn) [compound 782]
15,33.7,O=C(N1CC2(CC(Cc3nc(C(F)(F)F)cs3)C2)C1)N1CC2(CC(c3nc(C4COC4)n[nH]3)C2)C1 [compound 783]
16,5.18,O=C(N1CC2(CC(c3nc(C4CC4)n[nH]3)C2)C1)N1CC2(CN(Cc3cnc(C(F)(F)F)s3)C2)C1 [compound 784]
17,0.39,Cn1nc(C(F)(F)F)cc1CC1CC2(C1)CN(C(=O)N1CC3(CC(c4nc(C5CC5)n[nH]4)C3)C1)C2 [compound 785]
18,1.2,O=C(N1CC2(CC(Cn3cnc(C4(C(F)(F)F)CC4)n3)C2)C1)N1CC2(CC(c3nc(C4CC4)n[nH]3)C2)C1 [compound 787]
19,1.03,O=C(N1CC2(CC(Cc3noc(C(F)(F)F)n3)C2)C1)N1CC2(CC(c3nc(C4CC4)n[nH]3)C2)C1 [compound 794]
20,33.3,O=C(N1CC2(CC(c3nc(C4CC4)n[nH]3)C2)C1)N1CC2(CN(Cc3nc[nH]c3C(F)(F)F)C2)C1 [compound 795]
21,1330,O=C(N1CC2(CC(c3nc(C4CC4)n[nH]3)C2)C1)N1CC2(CN(Cc3cc[nH]n3)C2)C1 [compound 799]
22,7.16,O=C(N1CC2(CC(c3nc(C4CC4)n[nH]3)C2)C1)N1CC2(CCN(Cc3ccc(C(F)(F)F)nc3)C2)C1 [compound 804]
23,4.73,O=C(N1CC2(CC(c3ccc(C(F)(F)F)nc3)C2)C1)N1CC2(CC(c3nc(C4CC4)n[nH]3)C2)C1 [compound 805]
24,0.29,N#Cc1cc(CC2CC3(C2)CN(C(=O)N2CC4(CC(c5nc(C6COC6)n[nH]5)C4)C2)C3)ccc1C(F)(F)F [compound 808]
25,0.34,CS(=O)(=O)c1cc(CC2CC3(C2)CN(C(=O)N2CC4(CC(c5nc(C6CC6)n[nH]5)C4)C2)C3)cc(C(F)(F)F)c1 [compound 809]
26,0.18,O=C(N1CC2(CC(Cc3ccc(S(=O)(=O)C(F)(F)F)cn3)C2)C1)N1CC2(CC(c3nc(C4CC4)n[nH]3)C2)C1 [compound 813]
27,60.3,O=C(N1CC2(CCC(Cc3ccc(C(F)(F)F)cn3)CC2)C1)N1CC2(CC(c3nc(C4COC4)n[nH]3)C2)C1 [compound 814]
